Where two headings read alike, the source gives them in different places. Starred links: 1 amine or outer side, 2 acyl side, 3 side chain; linkers in the order of their positions; H or OH if unused. Positions of bridges follow the written chain, without caps; N, C: chain ends. Non-standard residues stand in square brackets, D forms with d. Residues, ends and D or L forms follow the SMILES beside them. Chains are numbered I, II in the order given. *: point of attachment. isoGln = NC(=O)[C@H](CCC(=O)[*:2])N[*:1]; εLys = N[C@@H](CCCCN[*:1])C(=O)[*:2]; 3Pal = N[C@@H](Cc1cccnc1)C(=O)O; Orn = NCCC[C@H](N)C(=O)O; Dab = NCC[C@H](N)C(=O)O; PhAc = O=C(Cc1ccccc1)*
Target: T1, human V1aR (Homo sapiens, UniProt P37288)
T1 construct: expressed in transfected cells
Assay: Agonist activity at vasopressin V1a receptors, cell-based FLIPR calcium assay
Conditions: for Emax: read-out: Efficacy Avg. (%)
Protocol: Efficacy (% MPE) is also determined as the percentage of maximal possible effect. This agonist assay utilizes cells from a stable cell line (HEK-flpin) expressing the vasopressin V1a receptor. Intracellular calcium increase in response to agonist is measured through real-time fluorescence of an intracellular calcium-sensitive dye. Cells are exposed to varying concentrations of test agonist compounds whereupon release of intracellular calcium is measured to determine the agonist potency and efficacy.
The cell line stably expresses the lacZ-Zeocin™ fusion gene and is designed for use with the Flp-In™ expression vector containing the gene of interest and the Flp recombinase expression plasmid, pOG44. The cell line contains a single integrated Flp Recombination Target (FRT) site from pFRT/lacZeo or pFRT/lacZeo2. To generate the HEK-flpin cell line stably expressing the human V1aR, the cells were co-transfected with the Flp-In™ expression vector containing the gene of interest (pcDNA5/FRT-hV1aR) and the Flp recombinase expression plasmid pOG44. Flp recombinase mediates insertion of the Flp-In™ expression vector into the genome at the integrated FRT site through site-specific DNA recombination. Stable cell lines expressing the hV1aR from the Flp-In™ expression vector can be generated by selection using hygromycin B. See Life Technologies/Invitrogen manual, Growth and Maintenance of Flp-In™ Cell Lines, Version E, published Feb.
Efficacy of this compound was set to be 100%. A stock solution of 5 mM was made up in DMSO and stored at −20° C.
HEK-flpin-hV1aR, cmcqV1aR, dV1aR and pV1aR cells were maintained in DMEM containing 10% (v/v) FBS-HI, 4 mM GlutaMAX™-I, 25 μg/mL Hygromycin B at 37° C. under 5% CO2 in a humidified atmosphere. Subculture was achieved by splitting semi-confluent cultures 1:3 to 1:6.
All compounds were made up in 100% DMSO at 10 mM stock concentrations and stored at −20° C. The compounds were allowed to thaw just before the assay. […] Typical dilution procedure of 10× final assay concentration involved a 1:100 top dilution (e.g., 2 μl Stock into 198 μl dilution medium) followed by half-log serial dilutions (e.g., 25.3 μl into 54.7 μl dilution medium supplemented with 1% DMSO (v/v)). (Dilution media consisted of phenol-red free DMEM containing 10% FBS-HI, 4 mM GlutaMAX™-I). […] The final DMSO concentration in the assay was 0.1%.
Loading Buffer was prepared by dissolving 1 vial of Calcium 4 Assay reagent in 100 mL of 1× HBSS-20 mM Hepes buffer.
The cells were loaded with Loading Buffer as follows. Cell plates were removed from the incubator and 20 μl of Loading Buffer containing probenecid (2.5 mM) was added to each well. The cells were incubated for 1 hr at 37° C. under 5% CO2 in a humidified atmosphere. The calcium image was obtained as follows.
The cell plates were transferred to FLIPR Tetra, along with a 384 well V-bottom plate pre-loaded with half-log concentrations of test compounds at 10× final test concentrations. The remaining steps of the assay were carried forward by FLIPR Tetra. A baseline reading was taken at 1-second (s) intervals for 5s followed by the addition of 5 μl of 10× compounds (test, reference, or Blank). The agonist-induced fluorescence signal was then measured for 180 s with initial 120 readings at 1-second intervals followed by 20 readings at 3-second intervals. Overall, each well in the FLIPR assay was composed of the following components in a total volume of 50 μl: 20 μl cells; 20 μl Calcium 4 Loading Buffer; […] 10× test or reference compound.

[1] = HEK-flpin cells stably expressing hV1aR, intracellular calcium fluorescence, averaged, read-out: EC50 (Avg)

T1 sequence (P37288 whole entry): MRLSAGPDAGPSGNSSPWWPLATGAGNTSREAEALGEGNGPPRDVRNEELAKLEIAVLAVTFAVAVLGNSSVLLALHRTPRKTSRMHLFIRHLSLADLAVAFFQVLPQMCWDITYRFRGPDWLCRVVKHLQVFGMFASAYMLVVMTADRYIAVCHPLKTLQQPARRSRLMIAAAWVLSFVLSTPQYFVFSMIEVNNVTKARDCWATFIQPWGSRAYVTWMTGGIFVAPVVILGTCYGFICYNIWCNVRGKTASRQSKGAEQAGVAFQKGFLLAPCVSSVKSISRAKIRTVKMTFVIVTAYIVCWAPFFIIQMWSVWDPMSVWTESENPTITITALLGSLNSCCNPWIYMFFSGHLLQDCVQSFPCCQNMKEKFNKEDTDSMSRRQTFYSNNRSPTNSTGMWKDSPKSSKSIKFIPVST

| Structure (SMILES) | EC50 [nM] | Emax [%] | EC50 [1] [nM] |
| --- | --- | --- | --- |
| CC[C@H](C)[C@@H]1NC(=O)[C@H](Cc2ccccc2)NC(=O)[C@@H](N)CSSC[C@@H](C(=O)N2CCC[C@H]2C(=O)N[C@@H](CCCNCCCCCNC(=O)CC[C@H](NC(=O)[C@H](CCCNC(=N)N)NC(=O)[C@@H]2CCCN2C(=O)[C@H](Cc2c[nH]cn2)NC(=O)[C@H](CC(N)=O)NC(=O)[C@H](CCC(N)=O)NC(=O)[C@H](Cc2ccccc2)NC(=O)[C@@H](Cc2ccc(OC)cc2)NC(=O)Cc2ccccc2)C(N)=O)C(=O)NCC(N)=O)NC(=O)[C@H](CC(N)=O)NC(=O)[C@H](CCC(N)=O)NC1=O [Compound 13] | 2.4 | 48 | – |
| CC[C@H](C)[C@@H]1NC(=O)[C@H](Cc2ccccc2)NC(=O)[C@@H](N)CSSC[C@@H](C(=O)N2CCC[C@H]2C(=O)N[C@@H](CCCNCCCCCNC(=O)CC[C@H](NC(=O)[C@H](CCCNC(=N)N)NC(=O)[C@@H]2CCCN2C(=O)[C@H](CCC(N)=O)NC(=O)[C@H](CC(N)=O)NC(=O)[C@H](CCC(N)=O)NC(=O)[C@H](Cc2ccccc2)NC(=O)[C@@H](Cc2ccc(OC)cc2)NC(=O)Cc2ccccc2)C(N)=O)C(=O)NCC(N)=O)NC(=O)[C@H](CC(N)=O)NC(=O)[C@H](CCC(N)=O)NC1=O [Compound 14] | 2.1 | 37 | – |
| CC[C@H](C)[C@@H]1NC(=O)[C@H](Cc2ccccc2)NC(=O)[C@@H](N)CSSC[C@@H](C(=O)N2CCC[C@H]2C(=O)N[C@@H](CCCNCCCCCNC(=O)CC[C@H](NC(=O)[C@H](CCCNC(=N)N)NC(=O)[C@@H]2CCCN2C(=O)[C@H](CCCNC(N)=O)NC(=O)[C@H](CC(N)=O)NC(=O)[C@H](CCC(N)=O)NC(=O)[C@H](Cc2ccccc2)NC(=O)[C@@H](Cc2ccc(OC)cc2)NC(=O)Cc2ccccc2)C(N)=O)C(=O)NCC(N)=O)NC(=O)[C@H](CC(N)=O)NC(=O)[C@H](CCC(N)=O)NC1=O [Compound 15] | 2.3 | 44 | – |
| CC[C@H](C)[C@@H]1NC(=O)[C@H](Cc2ccccc2)NC(=O)[C@@H](N)CSSC[C@@H](C(=O)N2CCC[C@H]2C(=O)N[C@@H](CCCNCCCCCNC(=O)CC[C@H](NC(=O)[C@H](CCCNC(=N)N)NC(=O)[C@@H]2CCCN2C(=O)[C@H](CCN)NC(=O)[C@H](CC(N)=O)NC(=O)[C@H](CCC(N)=O)NC(=O)[C@H](Cc2ccccc2)NC(=O)[C@@H](Cc2ccc(OC)cc2)NC(=O)Cc2ccccc2)C(N)=O)C(=O)NCC(N)=O)NC(=O)[C@H](CC(N)=O)NC(=O)[C@H](CCC(N)=O)NC1=O [Compound 16] | 2.4 | 46 | – |
| CCCCCCC(=O)N[C@H](Cc1ccc(OC)cc1)C(=O)N[C@@H](Cc1ccccc1)C(=O)N[C@@H](CCC(N)=O)C(=O)N[C@@H](CC(N)=O)C(=O)N[C@@H](C)C(=O)N1CCC[C@H]1C(=O)N[C@@H](CCCNC(=N)N)C(=O)N[C@@H](CCC(=O)NCCCCCCNCCC[C@H](NC(=O)[C@@H]1CCCN1C(=O)[C@@H]1CSSC[C@H](N)C(=O)N[C@@H](Cc2ccccc2)C(=O)N[C@@H]([C@@H](C)CC)C(=O)N[C@@H](CCC(N)=O)C(=O)N[C@@H](CC(N)=O)C(=O)N1)C(=O)NCC(N)=O)C(N)=O [Compound 17] | – | 62 | 2.9 |
| CC[C@H](C)[C@@H]1NC(=O)[C@H](Cc2ccccc2)NC(=O)[C@@H](N)CSSC[C@@H](C(=O)N2CCC[C@H]2C(=O)N[C@@H](CCNC(=O)[C@@H](N)CCCCNC(=O)CC[C@H](NC(=O)[C@H](CCCNC(=N)N)NC(=O)[C@@H]2CCCN2C(=O)[C@H](C)NC(=O)[C@H](CC(N)=O)NC(=O)[C@H](CCC(N)=O)NC(=O)[C@H](Cc2ccccc2)NC(=O)[C@@H](Cc2ccc(OC)cc2)NC(=O)Cc2ccccc2)C(N)=O)C(=O)NCC(N)=O)NC(=O)[C@H](CC(N)=O)NC(=O)[C@H](CCC(N)=O)NC1=O [Compound 18] (I: H-CFIQNCP[Dab]G-NH2 / II: PhAc-[dY](Me)FQNAPR[isoGln][εLys]; disulfide I:1-I:6; amide I:8-II:C) | 3.9 | 49 | – |
| CC[C@H](C)[C@@H]1NC(=O)[C@H](Cc2ccccc2)NC(=O)[C@@H](N)CSSC[C@@H](C(=O)N2CCC[C@H]2C(=O)N[C@@H](CCCNCCCCCCNC(=O)CC[C@H](NC(=O)[C@H](CCCNC(=N)N)NC(=O)[C@@H]2CCCN2C(=O)[C@H](C)NC(=O)[C@H](CC(N)=O)NC(=O)[C@H](CCC(N)=O)NC(=O)[C@H](Cc2ccccc2)NC(=O)[C@@H](Cc2ccc(OC)cc2)NC(=O)C2CCCCC2)C(N)=O)C(=O)NCC(N)=O)NC(=O)[C@H](CC(N)=O)NC(=O)[C@H](CCC(N)=O)NC1=O [Compound 19] | – | 50 | 2.5 |
| CC[C@H](C)[C@@H]1NC(=O)[C@H](Cc2ccccc2)NC(=O)[C@@H](N)CSSC[C@@H](C(=O)N2CCC[C@H]2C(=O)N[C@@H](CCCNCCCCCNC(=O)CCNC(=O)CC[C@H](NC(=O)[C@H](CCCNC(=N)N)NC(=O)[C@@H]2CCCN2C(=O)[C@H](C)NC(=O)[C@H](CC(N)=O)NC(=O)[C@H](CCC(N)=O)NC(=O)[C@H](Cc2ccccc2)NC(=O)[C@@H](Cc2ccc(OC)cc2)NC(=O)Cc2ccccc2)C(N)=O)C(=O)NCC(N)=O)NC(=O)[C@H](CC(N)=O)NC(=O)[C@H](CCC(N)=O)NC1=O [Compound 20] | 2.7 | 42 | – |
| CC[C@H](C)[C@@H]1NC(=O)[C@H](Cc2ccccc2)NC(=O)[C@@H](N)CSSC[C@@H](C(=O)N2CCC[C@H]2C(=O)N[C@@H](CCCNCCCCCCNC(=O)CC[C@H](NC(=O)[C@H](CCCNC(=N)N)NC(=O)[C@@H]2CCCN2C(=O)[C@H](C)NC(=O)[C@H](CC(N)=O)NC(=O)[C@H](CCC(N)=O)NC(=O)[C@H](Cc2ccccc2)NC(=O)[C@@H](Cc2ccc(OC)cc2)NC(=O)CC(C)C)C(N)=O)C(=O)NCC(N)=O)NC(=O)[C@H](CC(N)=O)NC(=O)[C@H](CCC(N)=O)NC1=O [Compound 21] | – | 47 | 1.5 |
| CC[C@H](C)[C@@H]1NC(=O)[C@H](Cc2ccccc2)NC(=O)[C@@H](N)CSSC[C@@H](C(=O)N2CCC[C@H]2C(=O)N[C@@H](CCCNC(=O)[C@@H](N)CCCCNC(=O)CC[C@H](NC(=O)[C@H](CCCNC(=N)N)NC(=O)[C@@H]2CCCN2C(=O)[C@H](CCCNC(=N)N)NC(=O)[C@H](CC(N)=O)NC(=O)[C@@H](NC(=O)[C@H](Cc2ccccc2)NC(=O)[C@@H](Cc2ccc(OC)cc2)NC(=O)Cc2ccccc2)[C@@H](C)O)C(N)=O)C(=O)NCC(N)=O)NC(=O)[C@H](CC(N)=O)NC(=O)[C@H](CCC(N)=O)NC1=O [Compound 22] (I: H-CFIQNCP[Orn]G-NH2 / II: PhAc-[dY](Me)FTNRPR[isoGln][εLys]; disulfide I:1-I:6; amide I:8-II:C) | 0.95 | 29 | – |
| CC[C@H](C)[C@@H]1NC(=O)[C@H](Cc2ccccc2)NC(=O)[C@@H](O)CSSC[C@@H](C(=O)N2CCC[C@H]2C(=O)N[C@@H](CCCNCCCCCNC(=O)CC[C@H](NC(=O)[C@H](CCCNC(=N)N)NC(=O)[C@@H]2CCCN2C(=O)[C@H](C)NC(=O)[C@H](CC(N)=O)NC(=O)[C@H](CCC(N)=O)NC(=O)[C@H](Cc2ccccc2)NC(=O)[C@@H](Cc2ccc(OC)cc2)NC(=O)Cc2ccccc2)C(N)=O)C(=O)NCC(N)=O)NC(=O)[C@H](CC(N)=O)NC(=O)[C@H](CCC(N)=O)NC1=O [Compound 23] | 1.7 | 51 | – |
| CC[C@H](C)[C@@H]1NC(=O)[C@H](Cc2ccccc2)NC(=O)[C@@H](N)CSSC[C@@H](C(=O)N2CCC[C@H]2C(=O)N[C@@H](CCCNC(=O)[C@@H](N)CCCCNC(=O)CC[C@H](NC(=O)[C@H](CCCNC(=N)N)NC(=O)[C@@H]2CCCN2C(=O)[C@H](CCCNC(=N)N)NC(=O)[C@H](CC(N)=O)NC(=O)[C@H](Cc2cccnc2)NC(=O)[C@H](Cc2ccccc2)NC(=O)[C@@H](Cc2ccc(OC)cc2)NC(=O)Cc2ccccc2)C(N)=O)C(=O)NCC(N)=O)NC(=O)[C@H](CC(N)=O)NC(=O)[C@H](CCC(N)=O)NC1=O [Compound 24] (I: H-CFIQNCP[Orn]G-NH2 / II: PhAc-[dY](Me)F[3Pal]NRPR[isoGln][εLys]; disulfide I:1-I:6; amide I:8-II:C) | 2.3 | 33 | – |

— patent publication US20160122386A1, “V1A RECEPTOR AGONISTS” (FERRING B.V., priority 2014, published 2016)
